Earlier results on one compound are cited in patent US20240226071A9, “SUSTAINED RELEASE OSMOTIC-CONTROLLED PHARMACEUTICAL COMPOSITION AND PREPARATION METHOD THEREOF” (Anxo Pharmaceutical Co., Ltd., priority 2022, published 2024).

For `O=C1[C@@H]2[C@H]3CC[C@H](C3)[C@@H]2C(=O)N1C[C@@H]1CCCC[C@H]1CN1CCN(c2nsc3ccccc23)CC1` [lurasidone], the solubility in water entry is on record as “lower than 0.1 mg/mL”.
